Measured values reported in paper PMC3566779 (The Journal of neuroscience : the official journal of the …, 2012).

Columns and labels:
Trpm8−/− mice = assay: Abdominal Tb in Trpm8−/− mice, telemetry setup; assay type: in vivo, mouse; conditions: Ta 26°C
Wistar rats [1] = assay: Preferred Ta and abdominal Tb in rats, thermogradient setup; assay type: in vivo, rat
Wistar rats [2] = assay: Deep; assay type: in vivo, rat
[3] = system: native TRPM8 channels in murine primary sensory neurons; assay: Ratiometric Ca2+ imaging of trigeminal or dorsal root ganglion neurons; assay type: cell-based, mouse
other TRP channels = assay: TRP selectivity assays in CHO cells; assay type: cell-based; conditions: read-out: IC50, block of other TRP channels
[4] = system: c-Fos expression in the lateral parabrachial nucleus; assay: Cold-induced c-Fos immunohistochemistry in the lateral parabrachial nucleus; assay type: in vivo, rat; conditions: rats, 6 mg/kg i.v. pretreatment, 2-h cold exposure (4°C)
Trpm8+/+ mice = assay: Abdominal Tb in Trpm8+/+ mice, telemetry setup; assay type: in vivo, mouse; conditions: Ta 26°C
rat TRPM8 = rat TRPM8 (Rattus norvegicus, UniProt Q8R455); assay: Aequorin luminescence Ca2+ assay, CHO cells stably expressing rat TRPM8; assay type: cell-based
Wistar rats [5] = assay: Colonic Tb and oxygen consumption in rats, respirometry setup; assay type: in vivo, rat; conditions: 6 mg/kg i.v. over 20 min, Ta 19°C
Wistar rats [6] = assay: BAT thermometry; assay type: in vivo, rat; conditions: 1 mg/kg i.v. at 32°C
TRPV1 = TRPV1 (Homo sapiens, UniProt Q8NER1); assay: TRPV1 assay, capsaicin activation; assay type: cell-based
Wistar rats [7] = conditions: TRPV1 antagonist; ref Garami et al., 2010; Steiner et al., 2007; cited from earlier work
TRPA1 = TRPA1 (Homo sapiens, UniProt O75762); assay: TRPA1 aequorin assay, allylisothiocyanate activation; assay type: cell-based; conditions: read-out: IC50 for TRPA1; 80 μM allylisothiocyanate as agonist
TRPV4 = TRPV4 (Homo sapiens, UniProt Q9HBA0); assay: TRPV4 aequorin assay, 4α-PDD activation; assay type: cell-based; conditions: read-out: IC50 for TRPV4; 1 μM 4α-PDD as agonist
Sequence of TRPV4 (Q9HBA0 whole entry, species assumed): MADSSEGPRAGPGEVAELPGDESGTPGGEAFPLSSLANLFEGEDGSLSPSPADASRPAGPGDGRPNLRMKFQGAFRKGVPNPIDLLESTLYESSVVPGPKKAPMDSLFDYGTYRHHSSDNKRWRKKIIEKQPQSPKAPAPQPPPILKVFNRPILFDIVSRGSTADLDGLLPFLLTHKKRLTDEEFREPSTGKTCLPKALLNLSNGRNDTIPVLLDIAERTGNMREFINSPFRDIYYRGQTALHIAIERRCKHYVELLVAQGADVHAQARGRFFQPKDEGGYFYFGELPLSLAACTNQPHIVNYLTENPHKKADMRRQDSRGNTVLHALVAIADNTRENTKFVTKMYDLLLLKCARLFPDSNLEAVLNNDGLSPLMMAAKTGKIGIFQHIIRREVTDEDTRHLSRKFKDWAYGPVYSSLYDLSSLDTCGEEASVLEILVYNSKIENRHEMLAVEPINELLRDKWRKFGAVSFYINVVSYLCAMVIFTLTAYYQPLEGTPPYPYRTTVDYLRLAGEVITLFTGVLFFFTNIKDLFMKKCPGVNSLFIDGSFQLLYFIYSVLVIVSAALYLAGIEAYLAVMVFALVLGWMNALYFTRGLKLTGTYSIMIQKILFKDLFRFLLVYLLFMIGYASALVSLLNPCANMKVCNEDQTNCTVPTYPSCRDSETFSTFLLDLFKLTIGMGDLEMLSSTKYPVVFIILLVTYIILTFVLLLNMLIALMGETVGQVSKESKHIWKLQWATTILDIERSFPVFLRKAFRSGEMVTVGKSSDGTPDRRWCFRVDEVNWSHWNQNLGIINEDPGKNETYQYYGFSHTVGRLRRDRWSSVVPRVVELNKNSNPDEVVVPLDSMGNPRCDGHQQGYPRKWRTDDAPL

Sequence of rat TRPM8 (Q8R455 whole entry): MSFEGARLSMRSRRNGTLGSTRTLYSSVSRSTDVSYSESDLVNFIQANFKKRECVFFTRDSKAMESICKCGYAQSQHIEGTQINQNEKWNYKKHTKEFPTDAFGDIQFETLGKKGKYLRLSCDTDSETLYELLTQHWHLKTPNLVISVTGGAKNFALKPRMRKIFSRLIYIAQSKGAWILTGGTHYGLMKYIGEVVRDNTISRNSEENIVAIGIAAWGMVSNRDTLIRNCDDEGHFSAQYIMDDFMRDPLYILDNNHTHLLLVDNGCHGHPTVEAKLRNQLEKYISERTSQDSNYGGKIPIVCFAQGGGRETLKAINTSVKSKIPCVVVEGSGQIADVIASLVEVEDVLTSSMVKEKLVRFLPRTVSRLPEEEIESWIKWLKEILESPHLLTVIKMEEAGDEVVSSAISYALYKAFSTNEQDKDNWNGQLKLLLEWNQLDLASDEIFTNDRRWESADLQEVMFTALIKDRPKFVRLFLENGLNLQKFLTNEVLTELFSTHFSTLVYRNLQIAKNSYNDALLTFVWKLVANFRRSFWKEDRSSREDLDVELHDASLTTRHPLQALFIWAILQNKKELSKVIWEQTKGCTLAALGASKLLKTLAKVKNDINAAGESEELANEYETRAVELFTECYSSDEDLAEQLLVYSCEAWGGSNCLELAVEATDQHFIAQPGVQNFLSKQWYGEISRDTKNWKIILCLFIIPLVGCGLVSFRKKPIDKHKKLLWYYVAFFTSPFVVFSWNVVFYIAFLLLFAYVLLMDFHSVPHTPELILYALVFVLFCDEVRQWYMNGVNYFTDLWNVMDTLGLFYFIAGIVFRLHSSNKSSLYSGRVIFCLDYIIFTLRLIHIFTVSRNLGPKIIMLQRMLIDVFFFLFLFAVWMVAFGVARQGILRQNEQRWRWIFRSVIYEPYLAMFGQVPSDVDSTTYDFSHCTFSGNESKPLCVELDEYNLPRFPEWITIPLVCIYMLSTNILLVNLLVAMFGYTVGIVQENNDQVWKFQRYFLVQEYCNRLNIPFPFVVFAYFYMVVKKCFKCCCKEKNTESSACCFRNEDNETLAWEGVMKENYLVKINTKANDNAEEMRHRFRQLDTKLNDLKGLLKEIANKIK
Sequence of TRPV1 (Q8NER1 whole entry, species assumed): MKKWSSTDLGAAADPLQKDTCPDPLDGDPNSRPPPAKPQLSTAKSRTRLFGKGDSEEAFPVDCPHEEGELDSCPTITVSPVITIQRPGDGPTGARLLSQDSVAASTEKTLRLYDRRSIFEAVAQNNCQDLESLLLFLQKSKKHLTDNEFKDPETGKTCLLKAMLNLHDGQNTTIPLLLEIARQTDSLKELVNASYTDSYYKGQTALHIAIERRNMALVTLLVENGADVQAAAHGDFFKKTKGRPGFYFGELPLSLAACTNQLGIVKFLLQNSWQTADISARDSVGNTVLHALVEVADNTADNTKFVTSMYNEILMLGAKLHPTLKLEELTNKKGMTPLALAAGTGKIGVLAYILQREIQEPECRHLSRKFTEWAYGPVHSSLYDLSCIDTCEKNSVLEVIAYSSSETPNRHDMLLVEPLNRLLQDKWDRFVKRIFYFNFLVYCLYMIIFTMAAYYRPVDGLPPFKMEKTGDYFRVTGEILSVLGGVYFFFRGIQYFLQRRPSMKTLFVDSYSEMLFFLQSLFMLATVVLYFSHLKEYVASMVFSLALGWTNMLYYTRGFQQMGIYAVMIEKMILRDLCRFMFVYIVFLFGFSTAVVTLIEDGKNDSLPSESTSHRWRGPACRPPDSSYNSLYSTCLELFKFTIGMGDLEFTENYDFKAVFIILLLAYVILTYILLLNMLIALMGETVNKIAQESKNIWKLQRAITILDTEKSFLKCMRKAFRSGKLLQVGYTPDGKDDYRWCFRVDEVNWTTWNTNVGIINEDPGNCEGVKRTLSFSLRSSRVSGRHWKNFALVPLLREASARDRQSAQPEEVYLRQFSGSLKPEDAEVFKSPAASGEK
Sequence of TRPA1 (O75762 whole entry, species assumed): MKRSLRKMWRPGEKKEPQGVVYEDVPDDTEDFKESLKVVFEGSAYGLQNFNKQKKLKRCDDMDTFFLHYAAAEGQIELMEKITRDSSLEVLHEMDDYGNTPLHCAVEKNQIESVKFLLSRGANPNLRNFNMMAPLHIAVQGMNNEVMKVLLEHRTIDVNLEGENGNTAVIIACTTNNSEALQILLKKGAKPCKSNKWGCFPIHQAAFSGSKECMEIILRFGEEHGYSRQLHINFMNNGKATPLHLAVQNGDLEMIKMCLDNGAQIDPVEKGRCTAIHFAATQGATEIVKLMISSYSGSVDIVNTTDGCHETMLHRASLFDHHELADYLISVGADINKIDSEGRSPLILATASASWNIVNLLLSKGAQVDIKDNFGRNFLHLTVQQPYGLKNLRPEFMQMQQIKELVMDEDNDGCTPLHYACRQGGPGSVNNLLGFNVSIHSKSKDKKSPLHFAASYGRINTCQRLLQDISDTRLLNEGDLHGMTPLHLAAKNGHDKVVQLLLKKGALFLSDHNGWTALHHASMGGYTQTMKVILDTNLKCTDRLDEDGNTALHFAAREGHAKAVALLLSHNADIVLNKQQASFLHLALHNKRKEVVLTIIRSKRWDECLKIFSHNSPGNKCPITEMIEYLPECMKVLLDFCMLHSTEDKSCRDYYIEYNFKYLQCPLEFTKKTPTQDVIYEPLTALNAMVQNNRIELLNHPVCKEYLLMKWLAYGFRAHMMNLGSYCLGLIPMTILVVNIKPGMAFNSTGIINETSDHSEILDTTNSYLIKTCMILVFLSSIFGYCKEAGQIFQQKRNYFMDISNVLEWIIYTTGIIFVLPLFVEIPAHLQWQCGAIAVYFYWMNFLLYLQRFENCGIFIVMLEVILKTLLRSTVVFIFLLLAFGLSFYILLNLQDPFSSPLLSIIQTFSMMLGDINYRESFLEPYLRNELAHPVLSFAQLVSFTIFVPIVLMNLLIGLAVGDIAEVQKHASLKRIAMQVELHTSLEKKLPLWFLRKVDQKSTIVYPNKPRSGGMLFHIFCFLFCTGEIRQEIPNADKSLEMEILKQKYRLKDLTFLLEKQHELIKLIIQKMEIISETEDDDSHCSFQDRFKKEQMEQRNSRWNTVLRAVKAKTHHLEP

COc1cc(CN(CCN)C(=O)c2cccs2)ccc1OCc1ccccc1.Cl [M8-B, N-(2-aminoethyl)-N-(4-(benzyloxy)-3-methoxybenzyl)thiophene-2-carboxamide hydrochloride]
Effect on abdominal Tb (Trpm8−/− mice; 6 mg/kg i.p.): not affected | Effect on hyperthermic response to menthol (Wistar rats [1]; rats, M8-B 1 mg/kg i.v. pretreatment, p = 0.0009): significantly attenuated | Effect on warmth-seeking response to menthol (Wistar rats [1]; rats, M8-B 1 mg/kg i.v. pretreatment, p = 0.096): tended to attenuate | Heat loss index (HLI) when Tb was 37.5°C (Wistar rats [2]; 1 mg/kg i.v. at 32°C then 21°C, controls HLI ~0): ~ 0.4 | Inter-treatment Tb difference (M8-B vs vehicle) (Wistar rats [2]; 1 mg/kg i.v. at Ta 32°C, then transferred to 11°C): exceeded 1 °C | Inter-treatment Tb difference (M8-B vs vehicle) (Wistar rats [2]; 1 mg/kg i.v. at Ta 32°C, then transferred to 14°C): exceeded 1 °C | Delay of the development of tail skin vasoconstriction (Wistar rats [2]; 1 mg/kg i.v. at Ta 32°C, then transferred to 21°C): ~ 5 min | Effect on Tb (Wistar rats [2]; 1 mg/kg i.v. over 40 min at Ta 32°C, then transferred to 21°C): significant decrease in Tb | Changes in Tb compared to vehicle (Wistar rats [2]; 1 mg/kg i.v., constant Ta 15°C): no significant changes | Effect on Tb (Wistar rats [2]; 1 mg/kg i.v., constant Ta 19°C, data not shown): did not affect Tb | Changes in Tb compared to vehicle (Wistar rats [2]; 1 mg/kg i.v., constant Ta 32°C): no significant changes | Tail Tsk at which M8-B caused a decrease in Tb (threshold, two-line model) (Wistar rats [2]; 1 mg/kg i.v., experiments of Fig. 6B–H): ≤ 23.2 °C | Effect on Tb (Wistar rats [2]; 2.5 mg/kg intracerebroventricularly, Ta 19°C): no effect | Effect on Tb (Wistar rats [2]; 2.5 mg/kg intrathecally, Ta 19°C): no effect | Decrease in colonic Tb compared to vehicle (Wistar rats [2]; 6 mg/kg i.v. over 20 min, Ta 19°C): ~ 0.9 °C | Effect on Tb (Wistar rats [2]; 6 mg/kg intrathecally, Ta 19°C): effective in decreasing Tb | Threshold intravenous dose for a significant decrease in deep Tb (Wistar rats [2]; i.v., Ta 19°C): 2.5 mg/kg | Number of cold-responsive neurons ([3]; M8-B 10 μM, cold (15°C), 19 ± 3% without treatment): 4 ± 1% | Number of neurons responsive to menthol ([3]; menthol 250 μM): significantly decreased | IC50 (other TRP channels): > 20000 nM | Decrease in number of cold-induced c-Fos-positive neurons, LPBE ([4]; p = 0.027): 48% | Decrease in number of cold-induced c-Fos-positive neurons, LPBC ([4]; p = 0.178): 41% | Decrease in abdominal Tb (Trpm8+/+ mice; 6 mg/kg i.p.): ~ 0.8 °C | IC50 (rat TRPM8; IC50, inhibition of rat TRPM8 activation by cold, cold (10°C)): 7.8 ± 1.1 nM | IC50 (rat TRPM8; IC50, inhibition of rat TRPM8 activation by icilin, icilin (1 μM)): 26.9 ± 12.1 nM | VO2 within the first hour after infusion (Wistar rats [5]; from 19 ml/kg/min): ~15 mL/min/kg | Colonic Tb within the first hour after infusion (Wistar rats [5]; from ~37.3°C): ~ 36.5 °C | BAT thermogenic response to cold (Wistar rats [6]; then 11°C, p = 0.105): tended to be less pronounced | Nadir of Tb (Wistar rats [6]; then transferred to 11°C, at 150 min): ~ 36.2 °C

CC1CCC(C(C)C)C(O)C1 (stereo not drawn) [menthol, reference compound]
Rise in Tb after menthol (Wistar rats [1]; rats pre-infused with vehicle, 10 g of 0.5% menthol ointment epidermally): ~ 1 °C

CC(C)(C)c1ccc(/C=C/C(=O)Nc2ccc3c(c2)OCCO3)cc1 [AMG9810, (E)-3-(4-t-butylphenyl)-N-(2,3-dihydrobenzo[b][1,4]dioxin-6-yl)acrylamide]
IC50 (TRPV1): 86 nM

O=C(/C=C/c1ccc(C(F)(F)F)nc1N1CCCCC1)Nc1cccc2c1CC(O)CC2 (stereo not drawn) [AMG0347]
Thermal response (Wistar rats [7]): cause hyperthermia

C=C(C)[C@]12C[C@@H](C)[C@@]34O[C@](Cc5ccccc5)(O[C@@H]1[C@@H]3C=C(COC(=O)Cc1ccc(O)c(OC)c1)C[C@]1(O)C(=O)C(C)=C[C@@H]41)O2 [RTX, resiniferatoxin, reference compound]
Decrease in Tb (Trpm8−/− mice; 150 ng/kg i.p.): ~ 2.5 °C | Effect on abdominal Tb (Trpm8+/+ mice; 150 ng/kg i.p.): readily produces hypothermia

Cl.Cl.Cl.Cl.Cl.Cl.N.N.N.N.N.N.N.N.N.N.N.N.N.N.[O-2].[O-2].[Ru+3].[Ru+3].[Ru+4] [ruthenium red]
IC50 (TRPA1): 367 nM | IC50 (TRPV4): 24 nM
